Source: patent EP0013067A1, “Bicyclic beta-lactam antibacterial agents, their use in pharmaceutical compositions, processes for their preparation and intermediates for use in such processes” (BEECHAM GROUP PLC, priority 1978, dated 1980)

Tests used:
Assay type in all cases: cell-based
Pseudomonas aeruginosa A [1] = assay: MIC, microtitre using Nutrient broth; conditions: Pseudomonas aeruginosa A; Microtitre using nutrient broth; inoculum 0.001 ml of a 10^-2 dilution for G + ve bacteria or a 10^-4 dilution for G - ve organisms; read-out: MIC Broth
Excerpt: (§1) The ninimum inhibitory concentrations (MIC) cf this compound required to inhibit the growth of various bacteria are tabulated balow: […]

Escherichia coli 0111 [2] = assay: MIC, microtitre using Nutrient broth; conditions: Microtitre using nutrient broth, inoculum 0.001 ml of a 10^-2 dilution for G + ve bacteria or a 10^-4 dilution for G - ve organisms
Excerpt: as §1

[3] = tested on: Staphylococcus aureus Russell; assay: MIC, microtitre using Nutrient broth; conditions: Staphylococcus aureus Russell; Microtitre using nutrient broth; inoculum 0.001 ml of a 10^-2 dilution for G + ve bacteria or a 10^-4 dilution for G - ve organisms; read-out: MIC Broth
Excerpt: as §1

Klebsiella aerogenes A [4] = assay: MIC, microtitre using Nutrient broth; conditions: Klebsiella aerogenes A; Microtitre using nutrient broth; inoculum 0.001 ml of a 10^-2 dilution for G + ve bacteria or a 10^-4 dilution for G - ve organisms; read-out: MIC Broth
Excerpt: as §1

Escherichia coli JT 39 [5] = assay: MIC, microtitre using Nutrient broth; conditions: JT39; Escherichia coli JT 39; Microtitre using nutrient broth; inoculum 0.001 ml of a 10^-2 dilution for G + ve bacteria or a 10^-4 dilution for G - ve organisms; read-out: MIC Broth
Excerpt: as §1

Proteus mirabilis C977 [6] = assay: MIC, microtitre using Nutrient broth; conditions: Proteus mirabilis C977; Microtitre using nutrient broth; inoculum 0.001 ml of a 10^-2 dilution for G + ve bacteria or a 10^-4 dilution for G - ve organisms; read-out: MIC Broth
Excerpt: as §1

Enterobacter cloacae N1 = assay: MIC, DST agar + 10% horse blood; conditions: Enterobacter cloacae N1; DST agar + 10% horse blood; inoculum 0.001 ml of a 10^-2 dilution for G + ve bacteria or a 10^-4 dilution for G - ve organisms; read-out: MIC Agar
Excerpt: as §1

[7] = tested on: Streptococcus pyogenes CN10; assay: MIC, DST agar + 10% horse blood; conditions: Streptococcus pyogenes CN10; DST agar + 10% horse blood; inoculum 0.001 ml of a 10^-2 dilution for G + ve bacteria or a 10^-4 dilution for G - ve organisms; read-out: MIC Agar
Excerpt: as §1

[8] = tested on: Salmonella typhimurium CT10; assay: MIC, DST agar + 10% horse blood; conditions: Salmonella enterica; Salmonella typhimurium CT10; DST agar + 10% horse blood; inoculum 0.001 ml of a 10^-2 dilution for G + ve bacteria or a 10^-4 dilution for G - ve organisms; read-out: MIC Agar
Excerpt: as §1

Bacillus subtilis A = assay: MIC, DST agar + 10% horse blood; conditions: Bacillus subtilis A; DST agar + 10% horse blood; inoculum 0.001 ml of a 10^-2 dilution for G + ve bacteria or a 10^-4 dilution for G - ve organisms; read-out: MIC Agar
Excerpt: as §1

Pseudomonas aeruginosa A [9] = assay: MIC, DST agar + 10% horse blood; conditions: Pseudomonas aeruginosa A; DST agar + 10% horse blood; inoculum 0.001 ml of a 10^-2 dilution for G + ve bacteria or a 10^-4 dilution for G - ve organisms; read-out: MIC Agar
Excerpt: as §1

Escherichia coli 0111 [10] = assay: MIC, DST agar + 10% horse blood; conditions: Escherichia coli 0111, inoculum 0.001 ml of a 10^-2 dilution for G + ve bacteria or a 10^-4 dilution for G - ve organisms
Excerpt: as §1

Citrobacter freundii E8 = assay: MIC, DST agar + 10% horse blood; conditions: Citrobacter freundii E8; DST agar + 10% horse blood; inoculum 0.001 ml of a 10^-2 dilution for G + ve bacteria or a 10^-4 dilution for G - ve organisms; read-out: MIC Agar
Excerpt: as §1

[11] = tested on: Staphylococcus aureus 1517; assay: MIC, DST agar + 10% horse blood; conditions: Staphylococcus aureus 1517; DST agar + 10% horse blood; inoculum 0.001 ml of a 10^-2 dilution for G + ve bacteria or a 10^-4 dilution for G - ve organisms; read-out: MIC Agar
Excerpt: as §1

[12] = tested on: Staphylococcus aureus Russell; assay: MIC, DST agar + 10% horse blood; conditions: Staphylococcus aureus Russell; DST agar + 10% horse blood; inoculum 0.001 ml of a 10^-2 dilution for G + ve bacteria or a 10^-4 dilution for G - ve organisms; read-out: MIC Agar
Excerpt: as §1

Proteus rettgeri WM16 = assay: MIC, DST agar + 10% horse blood; conditions: Providencia rettgeri; Proteus rettgeri WM16; DST agar + 10% horse blood; inoculum 0.001 ml of a 10^-2 dilution for G + ve bacteria or a 10^-4 dilution for G - ve organisms; read-out: MIC Agar
Excerpt: as §1

Klebsiella aerogenes A [13] = assay: MIC, DST agar + 10% horse blood; conditions: Klebsiella aerogenes A; DST agar + 10% horse blood; inoculum 0.001 ml of a 10^-2 dilution for G + ve bacteria or a 10^-4 dilution for G - ve organisms; read-out: MIC Agar
Excerpt: as §1

Escherichia coli JT 39 [14] = assay: MIC, DST agar + 10% horse blood; conditions: JT39; Escherichia coli JT 39; DST agar + 10% horse blood; inoculum 0.001 ml of a 10^-2 dilution for G + ve bacteria or a 10^-4 dilution for G - ve organisms; read-out: MIC Agar
Excerpt: as §1

[15] = tested on: Staphylococcus aureus Oxford; assay: MIC, DST agar + 10% horse blood; conditions: Staphylococcus aureus Oxford; DST agar + 10% horse blood; inoculum 0.001 ml of a 10^-2 dilution for G + ve bacteria or a 10^-4 dilution for G - ve organisms; read-out: MIC Agar
Excerpt: as §1

[16] = tested on: Streptococcus pneumoniae CN33; assay: MIC, DST agar + 10% horse blood; conditions: Streptococcus pneumoniae CN33; DST agar + 10% horse blood; inoculum 0.001 ml of a 10^-2 dilution for G + ve bacteria or a 10^-4 dilution for G - ve organisms; read-out: MIC Agar
Excerpt: as §1

Proteus mirabilis C977 [17] = assay: MIC, DST agar + 10% horse blood; conditions: Proteus mirabilis C977; DST agar + 10% horse blood; inoculum 0.001 ml of a 10^-2 dilution for G + ve bacteria or a 10^-4 dilution for G - ve organisms; read-out: MIC Agar
Excerpt: as §1

Shigella sonnei MB 11967 = assay: MIC, DST agar + 10% horse blood; conditions: MB11967, inoculum 0.001 ml of a 10^-2 dilution for G + ve bacteria or a 10^-4 dilution for G - ve organisms
Excerpt: as §1

Row | Structure (SMILES) | MIC (Pseudomonas aeruginosa A [1]) [µg/mL] | MIC (Escherichia coli 0111 [2]) [µg/mL] | MIC [3] [µg/mL] | MIC (Klebsiella aerogenes A [4]) [µg/mL] | MIC (Escherichia coli JT 39 [5]) [µg/mL] | MIC (Proteus mirabilis C977 [6]) [µg/mL] | MIC (Enterobacter cloacae N1) [µg/mL] | MIC [7] [µg/mL] | MIC [8] [µg/mL] | MIC (Bacillus subtilis A) [µg/mL] | MIC (Pseudomonas aeruginosa A [9]) [µg/mL] | MIC (Escherichia coli 0111 [10]) [µg/mL] | MIC (Citrobacter freundii E8) [µg/mL] | MIC [11] [µg/mL] | MIC [12] [µg/mL] | MIC (Proteus rettgeri WM16) [µg/mL] | MIC (Klebsiella aerogenes A [13]) [µg/mL] | MIC (Escherichia coli JT 39 [14]) [µg/mL] | MIC [15] [µg/mL] | MIC [16] [µg/mL] | also measured
1 | O=C(O)C1=C(CO)SC2CC(=O)N12 (centres unmarked) [compound 19, Sodium 2-Hydroxymethyl penem-3-carboxylate] | 62 | 31 | 8 | 31 | 62 | 62 | 50 | 1 | 10 | 2.5 | 50 | 10 | 10 | 25 | 2.5 | 50 | 10 | 10 | 2.5 | 1 | MIC (Proteus mirabilis C977 [17]): 25 µg/mL; MIC (Shigella sonnei MB 11967): 10 µg/mL
2 | CC(=O)OCC1=C(C(=O)O)N2C(=O)CC2S1 (centres unmarked) [compound 21, Sodium 2-Acetoxymethyl penem-3-carboxylate] | 500 | 8 | 8 | 8 | 31 | 8 | 100 | 2.5 | 25 | 2.5 | > 100 | 25 | 10 | 50 | 10 | 50 | 10 | 50 | 10 | 0.5 | MIC (Proteus mirabilis C977 [17]): 10 µg/mL; MIC (Shigella sonnei MB 11967): 50 µg/mL
